Assay results reported in the CheMixHub ionic liquid set.

Test: xn = mol fraction of the nth substance listed

CCC[n+]1ccccc1.N#C[N-]C#N + O
100 kPa
Details	electrical conductivity [S/m]	viscosity [mPa·s]
298.15 K, x1 = 0.9303	1.49	–
298.15 K, x1 = 0.9562	–	22.43
298.15 K, x1 = 0.9708	–	23.39
303.15 K, x1 = 0.9303	1.68	–
303.15 K, x1 = 0.9442	1.64	–
303.15 K, x1 = 0.9731	1.57	–
313.15 K, x1 = 0.9277	–	13.05
313.15 K, x1 = 0.9562	–	13.71
313.15 K, x2 = 0.01178	2.12	–
318.15 K, x1 = 0.9442	2.6	–
318.15 K, x1 = 0.9708	–	12.47
323.15 K, x1 = 0.9277	–	9.72
323.15 K, x1 = 0.9442	2.95	–
323.15 K, x1 = 0.9731	2.87	–
328.15 K, x1 = 0.9417	–	8.63
328.15 K, x1 = 0.9562	–	8.88
333.15 K, x1 = 0.9442	3.81	–
333.15 K, x1 = 0.9731	3.72	–
338.15 K, x1 = 0.9562	–	7.17
338.15 K, x1 = 0.9584	4.22	–

CCCn1cc[n+](C)c1.N[C@@H](CO)C(=O)[O-] + O
100 kPa
Details	electrical conductivity [S/m]	viscosity [mPa·s]
298.15 K, x1 = 0.8782	–	2215
298.15 K, x1 = 0.9094	–	2314
298.15 K, x1 = 0.9257	–	2391
303.15 K, x1 = 0.9426	–	1547
308.15 K, x1 = 0.8782	–	912
313.15 K, x1 = 0.8656	0.0804	–
313.15 K, x1 = 0.8956	0.0751	–
313.15 K, x1 = 0.9115	0.0721	–
318.15 K, x1 = 0.8936	–	432
318.15 K, x1 = 0.9094	–	438
318.15 K, x1 = 0.9115	0.102	–
318.15 K, x1 = 0.928	0.0979	–
323.15 K, x1 = 0.8809	0.15	–
323.15 K, x1 = 0.8956	0.145	–
323.15 K, x1 = 0.9426	–	337
328.15 K, x1 = 0.8809	0.199	–
328.15 K, x1 = 0.9257	–	238
333.15 K, x1 = 0.8782	–	171
333.15 K, x1 = 0.9115	0.248	–
338.15 K, x1 = 0.9115	0.319	–
338.15 K, x1 = 0.9257	–	134.8
338.15 K, x1 = 0.928	0.312	–

CC[n+]1ccccc1.O=S(=O)([O-])C(F)(F)F + O
101 kPa
Details	viscosity [mPa·s]
293.15 K, x1 = 0.067	2.47
298.15 K, x1 = 0.067	2.16
298.15 K, x1 = 0.498	15.04
313.15 K, x1 = 0.689	17.4
343.15 K, x1 = 0.689	8.42
353.15 K, x1 = 0.893	10.74

C[N+](C)(C)CCO.NCC(=O)[O-] + O
100 kPa
Details	viscosity [mPa·s]
298.15 K, x1 = 1	501
303.15 K, x1 = 0.6966	202
308.15 K, x1 = 0.1	4.34
308.15 K, x1 = 0.3996	60.2
313.15 K, x1 = 0.3996	49
313.15 K, x1 = 0.5004	71.1
318.15 K, x1 = 0.1	3.35
318.15 K, x1 = 0.3	25.63
318.15 K, x1 = 0.3996	40.89
318.15 K, x1 = 0.5004	56
318.15 K, x1 = 1	154.5

C[N+](C)(CCCS(=O)(=O)O)C1CCCCC1.Cc1ccc(S(=O)(=O)[O-])cc1 + O
101 kPa
Details	viscosity [mPa·s]
303.15 K, x1 = 1	113700
308.15 K, x1 = 0.06028	6.925
308.15 K, x1 = 1	56930
313.15 K, x1 = 0.01059	1.118
313.15 K, x1 = 0.06028	6
318.15 K, x1 = 0.01059	1.007
318.15 K, x1 = 0.1459	38.93
328.15 K, x1 = 0.01059	0.8334
328.15 K, x1 = 0.02771	1.636
328.15 K, x1 = 0.06028	3.944

CCCn1cc[n+](C)c1C.O=S(=O)([N-]S(=O)(=O)C(F)(F)F)C(F)(F)F + O=C1CCCO1
100 kPa, frequency 0.005 MHz
Details	electrical conductivity [S/m]
293.15 K, x2 = 0.2006	0.28
293.15 K, x2 = 0.6992	0.992
293.15 K, x2 = 0.8002	1.19
293.15 K, x2 = 0.8999	1.2
298.15 K, x2 = 0	0.265
303.15 K, x2 = 0.1289	0.395
303.15 K, x2 = 0.8508	1.5
308.15 K, x2 = 0.2006	0.537
308.15 K, x2 = 0.6992	1.41
308.15 K, x2 = 0.9495	1.11
313.15 K, x2 = 0.6992	1.57
313.15 K, x2 = 0.8508	1.77
313.15 K, x2 = 0.8999	1.68
318.15 K, x2 = 0.4952	1.32
323.15 K, x2 = 0.2006	0.864

COCCn1cc[n+](C)c1.N#C[S-] + O=C1CCCO1
101 kPa
Details	electrical conductivity [S/m]	viscosity [mPa·s]
288.15 K, x1 = 0.7036	0.526	34.8
288.15 K, x1 = 1	0.223	86
293.15 K, x1 = 0.8038	0.505	39.2
298.15 K, x1 = 0.3001	1.63	4.18
298.15 K, x1 = 1	0.41	53
303.15 K, x1 = 0.3001	1.8	3.68
308.15 K, x1 = 0.6015	1.36	9.6
308.15 K, x1 = 0.9012	0.791	27.2
313.15 K, x1 = 0.1027	1.99	1.82
313.15 K, x1 = 0.5006	1.79	5.6
313.15 K, x1 = 0.7036	1.33	11.8
318.15 K, x1 = 0.3001	2.44	2.59
318.15 K, x1 = 0.4001	2.25	3.46
323.15 K, x1 = 0.1999	2.68	1.85
323.15 K, x1 = 0.4001	2.48	3.1
323.15 K, x1 = 0.5006	2.25	4.26
323.15 K, x1 = 0.7036	1.75	8.8
328.15 K, x1 = 0.9012	1.52	13.9
333.15 K, x1 = 0.1027	–	1.3
338.15 K, x1 = 0.6015	2.74	4.26
338.15 K, x1 = 0.7036	2.46	6
343.15 K, x1 = 0.5006	3.3	2.71
343.15 K, x1 = 0.7036	2.7	5.4
